Key:
Assay type in all cases: cell-based
Streptococcus pyogenes = assay: Zone inhibition assay (filter paper disc area diffusion); conditions: distance from edge of disc to bacterial growth; blood agar; discs saturated with 100 mg/ml solution (antibiotic control discs 5-30 μg); 24 hours at 37° C.
Procedure: (§1) Two methods were used to examine whether an inhibitory effect from the zinc containing compounds was observable and if there was an inhibitory effect, whether the effect was bactericidal (bacteria-killing) or bacteriostatic (bacterial-inhibiting) in nature. In the first method, two Gram-positive bacteria strains (Staphlococcus aureus, Streptococcus pyogenes), two Gram-negative bacteria strains (Salmonella typhimerium, Eschrichia coli), and one common yeast strain (Candida albicans) were grown nutrient agar plates, except in the case of S. pyogenes which was grown on blood agar plates.
(§2) Zone inhibition assays were conducted with eighteen different samples in accordance with the methodology described by Maruzella, J. C. and Henry, P. A., J. Am. Pharm. Assoc. 47:894 (1958) for filter paper disc area diffusion. Sample solutions were prepared to approximate 100 mg/mL concentrations.
(§3) Organisms were grown for 24 hours at 37° C. on blood agar plates with the exception of Candida albicans which was grown in a standard methods agar (SMA) medium. Solutions of each sample were prepared using sterile DD water at a concentration of 100 mg/ml. Paper discs were saturated with solution from each sample and dried aseptically. […] Following drying of solution derived discs, all discs were placed on agar plates with each of the five different microorganisms.

Candida albicans [1] = assay: as above; conditions: distance from edge of disc to growth; discs saturated with 100 mg/ml solution (antibiotic control discs 5-30 μg); 24 hours at 37° C.
Procedure: as §1, §2, §3

Eschrichia coli [2] = assay: as above; conditions: distance from edge of disc to bacterial growth; discs saturated with 100 mg/ml solution (antibiotic control discs 5-30 μg); 24 hours at 37° C.
Procedure: as §1, §2, §3

Salmonella typhimerium = assay: as above; conditions: distance from edge of disc to bacterial growth; discs saturated with 100 mg/ml solution (antibiotic control discs 5-30 μg); 24 hours at 37° C.
Procedure: as §1, §2, §3

Staphlococcus aureus [3] = assay: as above; conditions: distance from edge of disc to bacterial growth; discs saturated with 100 mg/ml solution (antibiotic control discs 5-30 μg); 24 hours at 37° C.
Procedure: as §1, §2, §3

Candida albicans [4] = assay: Turbidity assay (TSB tubes, plated out); design: key: no-growth (NG) which corresponds with excellent inhibitory activity; partial growth (PG) which corresponds with good inhibitory activity; complete growth (CG) which corresponds with little or no inhibitory activity; conditions: TSB tube with 1.0 mL sample solution (100 mg/mL) and 100 μL 24-hour culture; after 24 hours plated, incubated 24 hours
Procedure: (§4) In the second method, turbidity assays were conducted. Tryptic soy broth (TSB) tubes were inoculated with 1.0 mL of sample solutions (100 mg/mL) and 50 μL of 24-hour cultures of each microbe. In the case of C. albicans, 100 μL of 24-hour culture was used. After 24 hours, an aliquot from each tube was plated out onto nutrient media and incubated for 24 hours. Following incubation, colonies on each plate were observed and characterized as one of three categories: no-growth (NG) which corresponds with excellent inhibitory activity, partial growth (PG) which corresponds with good inhibitory activity, complete growth (CG) which corresponds with little or no inhibitory activity.
(§5) S. pyongenes, could not be grown in the solution, so the turbidity assay was not conducted for that microorganism. When the data from both zone inhibition (Table 2) and turbidity (Table 3) assays are compared, an indication of the inhibition activity may be evident.

Eschrichia coli [5] = assay: Turbidity assay (TSB tubes, plated out); design: key: no-growth (NG) which corresponds with excellent inhibitory activity; partial growth (PG) which corresponds with good inhibitory activity; complete growth (CG) which corresponds with little or no inhibitory activity; conditions: TSB tube with 1.0 mL sample solution (100 mg/mL) and 50 μL 24-hour culture; after 24 hours plated, incubated 24 hours
Procedure: as §4, §5

Staphlococcus aureus [6] = assay: Turbidity assay (TSB tubes, plated out); design: key: no-growth (NG) which corresponds with excellent inhibitory activity; partial growth (PG) which corresponds with good inhibitory activity; complete growth (CG) which corresponds with little or no inhibitory activity; conditions: TSB tube with 1.0 mL sample solution (100 mg/mL) and 50 μL 24-hour culture; after 24 hours plated, incubated 24 hours
Procedure: as §4, §5

## NCC(=O)[O-].[Na+] [Sample 16, Sodium Glycinate]
Streptococcus pyogenes
  inhibitory zone, Streptococcus pyogenes: no activity
Candida albicans [1]
  inhibitory zone, Candida albicans: no activity
Eschrichia coli [2]
  inhibitory zone, Eschrichia coli: no activity
Salmonella typhimerium
  inhibitory zone, Salmonella typhimerium: no activity
Staphlococcus aureus [3]
  inhibitory zone, Staphlococcus aureus: no activity

## NC[C@@H]1O[C@H](O[C@H]2[C@@H](O)[C@H](O[C@@H]3[C@@H](O)[C@H](N)C[C@H](N)[C@H]3O[C@H]3O[C@H](CN)[C@@H](O)[C@H](O)[C@H]3N)O[C@@H]2CO)[C@H](N)[C@@H](O)[C@@H]1O [Sample 8, Neomycin]
Streptococcus pyogenes
  inhibitory zone, Streptococcus pyogenes: 3 millimeters
Candida albicans [1]
  inhibitory zone, Candida albicans: no activity
Eschrichia coli [2]
  inhibitory zone, Eschrichia coli: 3 millimeters
Salmonella typhimerium
  inhibitory zone, Salmonella typhimerium: 6 millimeters
Staphlococcus aureus [3]
  inhibitory zone, Staphlococcus aureus: 6 millimeters

## [Cl-].[Cl-].[Zn+2] [Sample 1, Zinc Chloride]
Streptococcus pyogenes
  inhibitory zone, Streptococcus pyogenes: 2.5 millimeters
Candida albicans [1]
  inhibitory zone, Candida albicans: 4.5 millimeters
Eschrichia coli [2]
  inhibitory zone, Eschrichia coli: 4 millimeters
Salmonella typhimerium
  inhibitory zone, Salmonella typhimerium: 3.5 millimeters
Staphlococcus aureus [3]
  inhibitory zone, Staphlococcus aureus: 6 millimeters
Candida albicans [4]
  colony growth category, Candida albicans: PG
Eschrichia coli [5]
  colony growth category, Eschrichia coli: PG
Staphlococcus aureus [6]
  colony growth category, Staphlococcus aureus: PG

## O=S(=O)([O-])[O-].[Na+].[Na+] [Sample 17, Sodium Sulfate]
Streptococcus pyogenes
  inhibitory zone, Streptococcus pyogenes: no activity
Candida albicans [1]
  inhibitory zone, Candida albicans: no activity
Eschrichia coli [2]
  inhibitory zone, Eschrichia coli: no activity
Salmonella typhimerium
  inhibitory zone, Salmonella typhimerium: no activity
Staphlococcus aureus [3]
  inhibitory zone, Staphlococcus aureus: no activity

## CN(C)[C@@H]1C(O)=C(C(N)=O)C(=O)[C@@]2(O)C(O)=C3C(=O)c4c(O)cccc4[C@@](C)(O)[C@H]3C[C@@H]12 [Sample 11, Tetracycline]
Streptococcus pyogenes
  inhibitory zone, Streptococcus pyogenes: no activity
Candida albicans [1]
  inhibitory zone, Candida albicans: no activity
Eschrichia coli [2]
  inhibitory zone, Eschrichia coli: 5.5 millimeters
Salmonella typhimerium
  inhibitory zone, Salmonella typhimerium: 7 millimeters
Staphlococcus aureus [3]
  inhibitory zone, Staphlococcus aureus: 7.5 millimeters

## O=C([O-])CC(O)(CC(=O)[O-])C(=O)[O-].O=C([O-])CC(O)(CC(=O)[O-])C(=O)[O-].[Zn+2].[Zn+2].[Zn+2] [Sample 2, Zinc Citrate]
Streptococcus pyogenes
  inhibitory zone, Streptococcus pyogenes: 3.5 millimeters
Candida albicans [1]
  inhibitory zone, Candida albicans: no activity
Eschrichia coli [2]
  inhibitory zone, Eschrichia coli: 1.5 millimeters
Staphlococcus aureus [3]
  inhibitory zone, Staphlococcus aureus: 1 millimeters

## O=S(=O)([O-])[O-].[Zn+2] [Sample 4, Zinc Sulfate]
Streptococcus pyogenes
  inhibitory zone, Streptococcus pyogenes: 2 millimeters
Candida albicans [1]
  inhibitory zone, Candida albicans: 2 millimeters
Eschrichia coli [2]
  inhibitory zone, Eschrichia coli: 3.5 millimeters
Salmonella typhimerium
  inhibitory zone, Salmonella typhimerium: 3 millimeters
Staphlococcus aureus [3]
  inhibitory zone, Staphlococcus aureus: 3.7 millimeters
Candida albicans [4]
  colony growth category, Candida albicans: CG
Eschrichia coli [5]
  colony growth category, Eschrichia coli: CG
Staphlococcus aureus [6]
  colony growth category, Staphlococcus aureus: CG

## NCC(=O)[O-].NCC(=O)[O-].[Zn+2] [Sample 5, Zinc Bis-Glycinate]
Streptococcus pyogenes
  inhibitory zone, Streptococcus pyogenes: 4 millimeters
Candida albicans [1]
  inhibitory zone, Candida albicans: 0.5 millimeters
Eschrichia coli [2]
  inhibitory zone, Eschrichia coli: 3.5 millimeters
Salmonella typhimerium
  inhibitory zone, Salmonella typhimerium: 3.5 millimeters
Staphlococcus aureus [3]
  inhibitory zone, Staphlococcus aureus: 3.5 millimeters
Candida albicans [4]
  colony growth category, Candida albicans: NG
Eschrichia coli [5]
  colony growth category, Eschrichia coli: NG
Staphlococcus aureus [6]
  colony growth category, Staphlococcus aureus: PG (1)

## CC(=O)[O-].CC(=O)[O-].[Zn+2] [Sample 3, Zinc Acetate]
Streptococcus pyogenes
  inhibitory zone, Streptococcus pyogenes: 3.5 millimeters
Candida albicans [1]
  inhibitory zone, Candida albicans: 2 millimeters
Eschrichia coli [2]
  inhibitory zone, Eschrichia coli: 3 millimeters
Salmonella typhimerium
  inhibitory zone, Salmonella typhimerium: 3 millimeters
Staphlococcus aureus [3]
  inhibitory zone, Staphlococcus aureus: 2 millimeters

Reference: patent publication US7582418B2, “Antimicrobial chelates” (Albion Laboratories, Inc., priority 2004, dated 2009)
